Where two headings read alike, the source gives them in different places.
Assays:
[1] = tested on: BT474; assay: Cell proliferation assay (CellTiter Glo), BT474; assay type: cell-based; details: Homo sapiens, BT-474, 168 h, 7 Day assay, charcoal stripped serum, no phenol red
Method: (§1) Cell lines were obtained from ATCC. Estrogen was obtained from SIGMA, 4-hydroxytamoxifen was obtained from SIGMA, Bosutinib was used for these studies. Charcoal-stripped serum and phenol red-free medium was obtained from Invitrogen. CellTiter Glo was obtained from Promega.
Cell cultures. Proliferation assays with cells in complete fetal calf serum were performed with medium containing phenol red. For all assays examining estrogen-dependence, cells were cultured in phenol red-free medium; DMEM/F12 (MCF7), RPMI1640 (MDA-MB-361, T47D) MEM (BT20, MDA-MB-231) McCoys5A modified (SKBR3), Leibowitz' L15 medium supplemented with 10 ng/mL insulin (MDA-MB-435 and MDA-MB-468) with 10% fetal bovine serum supplemented with glutamine and gentamicin. For proliferation assays, trypsinized cells were subjected to three cycles of centrifugation and resuspension in phenol red-free medium supplemented with charcoal stripped medium (5% final), glutamine and Pen/Strep. Cells were plated on day 0, with or without estrogen (10 nM final concentration). On day 1, 4-hydroxytamoxifen and SKI-606 or DMSO were added as a serial dilution. Cells were incubated for 7 days, after which CellTiter Glo (Promega) was added as recommended by the manufacturer. After mixing and two hours incubation on the bench, plates were read on an Envision reader. […]

[2] = tested on: T47D; assay: Cell proliferation assay (CellTiter Glo), T47D; assay type: cell-based; details: Homo sapiens, 168 h, 7 Day assay, charcoal stripped serum, no phenol red
Method: as §1
(§2) Cell cultures. Proliferation assays with cells in complete fetal calf serum were performed with medium containing phenol red. For all assays examining estrogen-dependence, cells were cultured in phenol red-free medium; DMEM/F12 (MCF7), RPMI1640 (MDA-MB-361, T47D) MEM (BT20, MDA-MB-231) McCoys5A modified (SKBR3), Leibowitz' L15 medium supplemented with 10 ng/mL insulin (MDA-MB-435 and MDA-MB-468) with 10% fetal bovine serum supplemented with glutamine and gentamicin. For proliferation assays, trypsinized cells were subjected to three cycles of centrifugation and resuspension in phenol red-free medium supplemented with charcoal stripped medium (5% final), glutamine and Pen/Strep. Cells were plated on day 0, with or without estrogen (10 nM final concentration). On day 1, 4-hydroxytamoxifen and SKI-606 or DMSO were added as a serial dilution. […] After mixing and two hours incubation on the bench, plates were read on an Envision reader. […] The 10 uM data point was dropped for these two lines since there was a clear plateau prior to the sharp drop in luminescence observed at 10 uM compound. […]

[3] = tested on: MDA-MB-435 (ER neg); assay: Cell proliferation assay, MDA-MB-435; assay type: cell-based; details: Homo sapiens, MDA-MB-435, 72 h; 3 Day assay, complete medium (10% FCS)
Method: as §1, §2

[4] = Phase 2 open-label study of bosutinib, safety (TEAEs); assay type: in vivo, human; details: 400 mg once-daily, 73 subjects
Method: In a phase 2, open-label, study of bosutinib in subjects with advanced or metastatic breast cancer where bosutinib is given at 400 mg once-daily, 73 total patients were randomized. As of 9 Jun. […] All of the responding patients had ER/PgR+ metastatic disease, but were less heavily pretreated with chemotherapy than typical patients and none had received prior endocrine therapy. […] In that trial, the median PFS was 15 weeks for all patients, 15.6 weeks and 14.9 weeks in ER+ and/or PgR+ and ER+ and/or PgR+, HER2-patients subgroups, respectively. There were 51 ER/PgR+ patients enrolled in the trial and a little more than half had received prior endocrine therapy, out of them 33 patients were ER/PgR+, HER2-. The preliminary safety data available for 73 subjects as of 9 Jun. 2008 are consistent with data from other ongoing studies. TEAEs were most frequently associated with gastrointestinal disorders (diarrhea, 66%; nausea, 55%; vomiting, 47%; abdominal pain, 12%; dyspepsia, 10%), general disorders (fatigue, 26%, asthenia, 19%, peripheral oedema, 11%; pyrexia, 10%), infections and infestations (16%), metabolism disorders (ALT increase, 12%; AST increase, 12%, weight loss, 11%; anorexia, 18%), musculoskeletal disorders (anthralgia, 12%; back pain, 12%), headache (14%), and rash (14%). Out of all of these TEAEs, only gastrointestinal disorders (diarrhea, 64%; nausea, 51%; vomiting, 42%; abdominal pain, 10%), general disorders (fatigue, 16%, asthenia, 14%), metabolism disorders (ALT increase, 11%; AST increase, 10%; anorexia, 15%) and rash (10%) were considered at least possibly related to bosutinib.

[5] = 10 nM estrogen, read-out: IC50 (uM) E2
[6] = without estrogen, read-out: IC50 (uM) no E2

SMILES: COc1cc(Nc2c(C#N)cnc3cc(OCCCN4CCN(C)CC4)c(OC)cc23)c(Cl)cc1Cl [bosutinib]
- IC50 [1, 5]: 2.32 µM
- IC50 [1, 6]: 2.22 µM
- IC50 [2, 5]: 1.28 µM
- IC50 [2, 6]: 2.85 µM
- IC50 [3]: 3.4 µM
- TEAE ALT increase ([4]; all TEAEs): 12%
- TEAE AST increase ([4]; all TEAEs): 12%
- TEAE abdominal pain ([4]; all TEAEs): 12%
- TEAE anorexia ([4]; all TEAEs): 18%
- TEAE anthralgia ([4]; all TEAEs): 12%
- TEAE asthenia ([4]; all TEAEs): 19%
- TEAE back pain ([4]; all TEAEs): 12%
- TEAE diarrhea ([4]; all TEAEs): 66%
- TEAE dyspepsia ([4]; all TEAEs): 10%
- TEAE fatigue ([4]; all TEAEs): 26%
- TEAE headache ([4]; all TEAEs): 14%
- TEAE infections and infestations ([4]; all TEAEs): 16%
- TEAE nausea ([4]; all TEAEs): 55%
- TEAE peripheral oedema ([4]; all TEAEs): 11%
- TEAE pyrexia ([4]; all TEAEs): 10%
- TEAE rash ([4]; all TEAEs): 14%
- TEAE vomiting ([4]; all TEAEs): 47%
- TEAE weight loss ([4]; all TEAEs): 11%
- TEAE ALT increase, at least possibly related to bosutinib ([4]; related TEAEs): 11%
- TEAE AST increase, at least possibly related to bosutinib ([4]; related TEAEs): 10%
- TEAE abdominal pain, at least possibly related to bosutinib ([4]; related TEAEs): 10%
- TEAE anorexia, at least possibly related to bosutinib ([4]; related TEAEs): 15%
- TEAE asthenia, at least possibly related to bosutinib ([4]; related TEAEs): 14%
- TEAE diarrhea, at least possibly related to bosutinib ([4]; related TEAEs): 64%
- TEAE fatigue, at least possibly related to bosutinib ([4]; related TEAEs): 16%
- TEAE nausea, at least possibly related to bosutinib ([4]; related TEAEs): 51%
- TEAE rash, at least possibly related to bosutinib ([4]; related TEAEs): 10%
- TEAE vomiting, at least possibly related to bosutinib ([4]; related TEAEs): 42%

Reference: patent US20100069340A1, “PHARMACEUTICAL COMPOSITIONS OF AN SRC KINASE INHIBITOR AND AN AROMATASE INHIBITOR” (Wyeth, priority 2008, published 2010)
